# Test results taken from patent US4636499A, “Sulphenamides” (priority 1984, dated 1987).
# Tests used:
# [1] = target: T1, Hog gastric H^+,K^+ -ATPase (Sus scrofa, UniProt P19156); test: In vitro inhibition of gastric H^+,K^+-ATPase; format: biochemical; settings: pH 7,4; 30 minutes of incubation; 10 μg membrane protein (GI-fraction); read-out: concentration at half-maximal inhibition (IC50) (converted)
# T1 construct: from tissue; host or cells: hog gastric membranes (GI-fraction)
# Experimental: I. In vitro inhibition of gastric H^+,K^+ -ATPase
# Hog gastric H^+,K^+ -ATPase was purified according to Saccomani et al., Biochim. Biophys. Acta 465, 311-330, 1977. 10 μg of membrane protein (GI-fraction in the reference listed above) was incubated with 2 mmol/l of piperazine-N,N'-bis-(2-ethane sulfonic acid) buffer pH 7,4 and the test compound in concentrations 10^-7 -10^-4 M in a final volume of 1 ml. (The test compound was dissolved in methanol. Aliquots of these stock solutions were diluted to a final methanol concentration below 1%, which on its own had no effect on the enzyme activities.) After 30 minutes of incubation, the remaining H^+,K^+ -ATPase activity was determined, according to Wallmark et al., Biochim. Biophys. Acta, 728, 31-38, 1983. A dose-response curve was constructed and the concentration at half-maximal inhibition (IC50) could be determined.
# gastric acid secretion = test: Inhibiting effect in vivo on gastric acid secretion in conscious dog; settings: 4 μmol/kg; orally by stomach tube; histamine-induced; gastric fistula dogs
# Experimental: II. Inhibiting effect in vivo on gastric acid secretion in conscious dog
# Chronic gastric fistula dogs were used. These dogs have been surgically provided with a gastric cannula in the stomach and a duodenal fistula used for direct intraduodenal administration of test compounds. Following a 4 weeks' recovery period after surgery, tests were performed once a week on each dog. Food and water were withdrawn 18 hours before each test.
# The test compound was suspended in 0.5% Methocel® (90 HG, 15.000, Dow Chem Corp.), the pH was immediately adjusted to about 4 by addition of hydrochloric acid and the suspension administered orally by using a stomach tube. After 1 hour gastric acid secretion was induced by continuous infusion of histamine at individual doses (400-600 nmol/kg, h), resulting in approx. 90% of maximal secretion of gastric acid. The gastric juice was collected by free flow from the gastric cannula in consecutive 30 minutes samples for 2 hours. The samples were titrated to pH 7.0 with 0.1M NaOH using a Radiometer automatic titrator and the acid output was calculated. The percent inhibition of acid secretion was calculated by comparing in each dog the acid output in the tests to the acid output in control tests when only the vehicle was given. The peak inhibitory effect for each compound was determined. […]
# [2] = test system: ethanol-induced gastric lesions; test: In vivo cytoprotective effect: effect on ethanol-induced gastric lesions in the rat; set-up: species or system rat (female Spraque-Dawley); settings: for total lengths of lesions in the stomachs: 20 μmol/kg oral
# Experimental: III. In vivo cytoprotective effect: Effect on ethanol-induced gastric lesions in the rat
# Two groups of female Spraque-Dawley rats (190-220 g) were used, one for the test compound and one for the control experiment. Food, but not water, was removed 24 h before the experiments.
# The animals in the test group were treated orally with the test compound dissolved in 0.01M HCl immediately before the test and the animals in the control group were given the vehicle (0.01M HCl) in a dose of 1 ml/kg.
# Five or thirty minutes later the rats were given orally 1 ml of absolute ethanol (a standard agent for inducing gastric mucosal lesions).
# Thirty minutes later the rats were killed by carbon dioxide asphyxiation, their stomachs dissected out and the gastric mucosae were examined for the presence of necrotic lesions. The total lengths of the lesions in the stomachs were measured in the test group and in the control group, in both cases treated five and thirty minutes before with ethanol.
# T1 sequence (P19156 2-1034 limits assumed): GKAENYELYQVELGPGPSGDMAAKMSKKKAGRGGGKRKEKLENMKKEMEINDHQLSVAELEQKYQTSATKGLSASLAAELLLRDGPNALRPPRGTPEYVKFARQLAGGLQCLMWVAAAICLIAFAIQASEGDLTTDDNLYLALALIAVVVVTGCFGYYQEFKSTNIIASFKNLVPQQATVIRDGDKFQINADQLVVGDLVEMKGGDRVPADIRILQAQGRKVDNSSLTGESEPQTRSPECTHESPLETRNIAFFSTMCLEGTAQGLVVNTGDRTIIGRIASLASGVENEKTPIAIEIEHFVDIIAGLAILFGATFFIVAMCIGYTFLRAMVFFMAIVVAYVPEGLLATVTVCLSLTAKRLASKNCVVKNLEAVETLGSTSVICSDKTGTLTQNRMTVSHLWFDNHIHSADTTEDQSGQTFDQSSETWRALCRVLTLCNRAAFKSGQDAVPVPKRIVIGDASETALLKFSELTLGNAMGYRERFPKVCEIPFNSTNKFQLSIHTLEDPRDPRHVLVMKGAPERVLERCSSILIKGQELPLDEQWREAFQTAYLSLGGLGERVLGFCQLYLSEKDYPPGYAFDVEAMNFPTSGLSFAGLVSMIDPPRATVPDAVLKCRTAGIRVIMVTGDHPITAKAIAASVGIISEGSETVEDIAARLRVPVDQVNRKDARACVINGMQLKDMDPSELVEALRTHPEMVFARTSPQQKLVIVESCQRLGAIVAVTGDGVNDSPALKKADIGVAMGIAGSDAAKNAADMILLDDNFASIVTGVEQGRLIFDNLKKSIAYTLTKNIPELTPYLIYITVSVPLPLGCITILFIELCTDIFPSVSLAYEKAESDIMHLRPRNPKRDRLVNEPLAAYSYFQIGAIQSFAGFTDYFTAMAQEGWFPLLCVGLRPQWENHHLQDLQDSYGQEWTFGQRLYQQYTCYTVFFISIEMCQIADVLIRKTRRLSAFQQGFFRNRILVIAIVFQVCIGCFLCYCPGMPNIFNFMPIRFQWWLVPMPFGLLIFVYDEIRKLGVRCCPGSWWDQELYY
# T1 sequence (P18434 whole entry partner): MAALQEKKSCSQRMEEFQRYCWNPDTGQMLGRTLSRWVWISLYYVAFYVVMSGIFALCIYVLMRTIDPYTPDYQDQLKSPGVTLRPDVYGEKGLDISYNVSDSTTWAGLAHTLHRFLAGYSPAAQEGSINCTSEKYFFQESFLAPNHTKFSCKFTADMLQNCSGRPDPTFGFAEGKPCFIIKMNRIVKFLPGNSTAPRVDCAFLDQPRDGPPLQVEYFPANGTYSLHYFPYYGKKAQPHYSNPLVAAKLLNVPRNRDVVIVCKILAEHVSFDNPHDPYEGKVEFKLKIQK
substance,measurement,setting,value
"2,4-Dimethyl-3,9-dimethoxy-5H-pyrido[1',2':4,5][1,2,4]thiadiazino[2,3-a]benzimidazol-13-ium tetrafluoroborate (1A) and 2,4-Dimethyl-3,10-dimethoxy-5H-pyrido[1',2':4,5][1,2,4]thiadiazino[2,3-a]benzimidazol-13-ium tetrafluoroborate (1B) (isomeric mixture) [Examples 1A and 1B]",IC50,[1],600 nM
same,percent inhibition of acid secretion (peak inhibitory effect),gastric acid secretion,40%
same,total lengths of lesions in the stomachs,"[2]; 5 min before ethanol, control 11.4 cm",5.3 cm
same,total lengths of lesions in the stomachs,"[2]; 30 min before ethanol, control 10.4 cm",4.4 cm
same,ED50-value (cytoprotective effect),"[2]; oral, ethanol-induced gastric lesions, indicated by lesion reduction at 20 μmol/kg",below 20 μmol/kg
